Measured values from patent publication US20030053967A1, “Use of 3,4-dihydroxy-mandelic acid for protecting against oxidative damage caused by ultra-violet light” (priority 2000, published 2003).

How the values were obtained:
[1] = 1,1-diphenyl-2-picrylhydrazyl test (DPPH test) for the removal of free radicals; type: biochemical; settings: DPPH 100 μmol/l in methanol, absorption at 515 nm
Method: The activity of 3,4-dihydroxymandelic acid as free-radical scavenger was compared with that of conventional free-radical scavengers. For this purpose, the 1,1-diphenyl-2-picrylhydrazyl test (DPPH test) for the removal of free radicals was used.
1,1-Diphenyl-2-picrylhydrazyl (DPPH) was dissolved in methanol to a concentration of 100 μmol/l. A series of dilutions of 3,4-dihydroxymandelic acid, vitamin C, α-tocopherol and 2,6-di-tert-butyl-4-methylphenol were prepared in methanol. Methanol was used as the control. 2500 μl of the DPPH solution were mixed with 500 μl of each test solution and the decrease in absorption at 515 nm was read until the decrease was less than 2% per hour. The activity of the test substances as free-radical scavengers was calculated using the following equation:
Activity as free-radical scavenger (%)=100−(absorption of the test compounds)/(absorption of the control)×100.
The activity of the free-radical scavengers (%) in a series of dilutions of test compounds was used to calculate, for each test compound, the effective relative concentration EC50 (based on the starting concentration of DPPH, EC=c (test compound)/c(DPPH)) of a test compound at which 50% of the free radical DPPH had been removed.

[2] = accelerated autoxidation of lipids by air, Rancimat apparatus, soybean oil; settings: for AOI in soybean oil at 100° C. with 0.05% test substance: soybean oil purified over alumina, AOI = IP(test)/IP(control); for AOI, soybean oil, 100° C.: single substance, c 0.025 % by wt.
Method: (§1) The test system used was the accelerated autoxidation of lipids by air with or without antioxidant using the Rancimat apparatus (Rancimat is a registered trademark of Metrohm AG, Herisau, Switzerland). […] In a control sample, only solvent was added. […] The conductivity of this aqueous solution was continuously measured and documented. The oxidation of (unsaturated) fats proceeds only very slowly for some time and then suddenly increases. The time to the increase is referred to as the induction period (IP). The following equation was used to calculate the antioxidative index (AOI): AOI=IP(with test solution/IP(control sample) The results for the experiment in soybean oil that has been purified over alumina grade N at 100° C. are shown in Table 2: The experiments were carried out as described under Example 2. […] The AOI values measured for the combinations were compared with the AOI values calculated according to the following formula: […]

[3] = accelerated autoxidation of lipids by air, Rancimat apparatus, squalene; settings: for AOI in squalene at 80° C. with 0.005% of test substance: squalene purified over alumina, stabilized with 1 ppm α-tocopherol, 0.005% test substance; for AOI, squalene, 80° C.: single substance, c 0.0025 % by wt.
Method: as §1, with “squalene” for “soybean oil”, “N and stabilized with 1 ppm of α-tocopherol” for “N”, “80°” for “100°”, “3:” for “2:”

[4] = test system: ultraviolet light-induced sebum oxidation (squalene hydroperoxide, SQOOH); assay: protective action against ultraviolet light-induced sebum oxidation on the skin of subjects; type: in vivo, human; settings: back skin of 12 subjects, UV 320 to 400 nm, 10 joules/cm^2; for c(H2O2)/c(SQ): 2 mg/cm^2 topical (acid: 200 mg in 200 ml 1,3-butylene glycol twice daily for 2 days; tocopherol: 0.2% ethanolic, once before irradiation); for % inhibition compared with the untreated area: squalene hydroperoxide, 2 mg/cm^2 topical
Method: 200 mg of 3,4-dihydroxymandelic acid were dissolved in 200 ml of 1,3-butylene glycol (solution A). In addition, a 0.2% strength ethanolic solution of tocopherol was prepared (solution B). A dose of 2 mg/cm^2 of solution A was applied twice daily to the skin on the back of 12 subjects for 2 days in each case. Prior to the following irradiation, solution B was applied to a control area (2 mg/cm^2). The 2 treated and one untreated sites were irradiated with ultraviolet light (320 to 400 nm, 10 joules/cm^2). The test areas in each case were treated with 4 ml of ethanol for 2 min, the solutions were dried under nitrogen at room temperature and the residue was taken up in 1 ml of ethanol. The latter solutions were investigated by HPLC for their content of squalene (detection at 210 nm against standard) or squalene hydroperoxide (SQOOH, determination of the peroxide content using cytochrome C/luminol-enhanced chemiluminescence). The content of squalene peroxide was given relative to squalene in the form of picomols peroxide per fig of squalene.
The inhibition based on the untreated area was calculated using the following equation:
% inhibition=100·(cSQOOH untreated−cSQOOH, treated)/CSQOOH, untreated

Row | EC50 (effective relative concentration at which 50% of the free radical DPPH had been removed, c(test compound)/c(DPPH)) [1] [mol/mol] | SMILES | AOI in soybean oil at 100° C. with 0.05% test substance [2] | AOI in squalene at 80° C. with 0.005% of test substance [3] | AOI, soybean oil, 100° C. [2] | AOI, squalene, 80° C. [3] | c(H2O2)/c(SQ) [4] [pmol/µg] | % inhibition compared with the untreated area [4] [%]
1 | 0.240 | Cc1cc(C(C)(C)C)c(O)c(C(C)(C)C)c1 [2,6-Di-tert-butyl-4-methylphenol] | 4.8 | 38 | – | – | – | –
2 | 0.062 | O=C(O)C(O)c1ccc(O)c(O)c1 (centres unmarked) [3,4-Dihydroxymandelic acid, 2-(3,4-dihydroxyphenyl)-2-hydroxyacetic acid] | 9.5 | 34 | 5.4 | 15 | 618 ± 45 | 33 ± 7
3 | 0.270 | O=C1O[C@H]([C@@H](O)CO)C(O)=C1O [Vitamin C] | 1.2 | 0.7 | – | – | – | –
4 | 0.250 | Cc1c(C)c2c(c(C)c1O)CC[C@@](C)(CCC[C@H](C)CCC[C@H](C)CCCC(C)C)O2 [α-Tocopherol] | 5.1 | 39 | 4.7 | 23 | 664 ± 19 | 28 ± 6
